Test results: PMC7070908, “Structure-Guided Identification of Black Cohosh (Actaea racemosa) Triterpenoids with In Vitro Activity against Multiple Myeloma” (Molecules, 2020)
Values after ≈ are worked out from the molar mass of the structure shown.

How the values were obtained:
[1] = tested on: U266 myeloma cell line; test: Cytotoxicity, flow cytometry (AnnexinV/propidium iodide negativity), U266; format: cell-based, human; settings: for activity on U266 (in words): up to 37.5 µM
Description: (§1) Induction of apoptosis was measured in myeloma cell lines NCI-H929, OPM-2, and U266 as well as in peripheral blood mononuclear cells (PBMCs) of healthy donors by flow cytometry using established protocols thereby staining the cells with AnnexinV-fluorescein isothiocyanate and propidium iodide. Bortezomib (Eubio, Vienna, Austria) was used as positive control. Cell lines were purchased from DSMZ (Braunschweig, Germany) and routinely fingerprinted and tested for mycoplasma negativity. All cells (cell lines and PBMC) were grown in RPMI-1640 medium (Life Technologies, Paisley, UK) supplemented with 10% fetal calf serum (FCS; PAA, Linz, Austria), L-glutamine 100 µg/mL, and penicillin-streptomycin 100 U/mL. PBMCs from healthy donors were used after obtaining written informed consent at the University Hospital Salzburg (ethics committee approval 415-E/1287/6-2011). Cells were subjected to Ficoll separation (Ficoll PaqueTM) and incubated in RPMI-1640 Media with supplements as above. In brief, 0.5 × 10^6 myeloma cells/mL or similar numbers of PMBCs were incubated for 24 h and 48 h with or without the tested compounds dissolved in dimethyl sulfoxide at different concentrations. At least three analyses in triplicates were performed for each cell line and a solvent control was always included. As a positive control, the proteasome inhibitor bortezomib (BTZ) was used at concentrations of 10 and 5 nM. The extent of non-apoptotic cells (AnnexinV/propidium iodide negativity) was calculated as percentage of viable cells in respect to the untreated control. Data are shown as mean percentage of viable cells and standard error of the mean (SEM) (error bars).

[2] = tested on: NCI-H929 myeloma cell line; test: Cytotoxicity, flow cytometry (AnnexinV/propidium iodide negativity), NCI-H929; format: cell-based, human; settings: for activity on NCI-H929 (in words): up to 37.5 µM
Description: as §1

[3] = tested on: peripheral blood mononuclear cells (PBMCs) of healthy donors; test: Cytotoxicity, flow cytometry (AnnexinV/propidium iodide negativity), PBMC of healthy donors; format: cell-based, human
Description: as §1

[4] = tested on: MCF7 breast cancer cells; parameters: method as in PMID 14758092; settings: incubation times of 96 h; cited from earlier work
[5] = tested on: OPM-2 myeloma cell line; test: Cytotoxicity, flow cytometry (AnnexinV/propidium iodide negativity), OPM-2; format: cell-based, human; settings: for activity on OPM-2 (in words): up to 37.5 µM
Description: as §1

[6] = tested on: MCF7 cells; parameters: method as in PMID 20564500; settings: cited from earlier work
[7] = tested on: doxorubicin-resistant-MCF7 (R-MCF7) cells; parameters: method as in PMID 20564500; settings: cited from earlier work
[8] = 25 µM, 24 h, % of untreated control, mean ± SEM (Table 1)
[9] = 25 µM, 48 h, % of untreated control, mean ± SEM (Table 2)
[10] = 50 µM, 24 h, % of untreated control, mean ± SEM (Table 1)
[11] = 50 µM, 48 h, % of untreated control, mean ± SEM (Table 2)
[12] = 12.5 µM, 24 h, second round (Table 3)
[13] = 25 µM, 24 h, second round (Table 3)
[14] = 37.5 µM, 24 h, second round (Table 3)
[15] = 5 nM, 24 h, positive control (Table 3)
[16] = 10 nM, 24 h, positive control (Table 3)

Structure (SMILES)	MM Cells % Alive U266 [1, 12]	MM Cells % Alive U266 [1, 13]	MM Cells % Alive U266 [1, 14]	activity on U266 (in words) ([1]; 24 h)	MM Cells % Alive NCI-H929 [2, 12]	MM Cells % Alive NCI-H929 [2, 13]	MM Cells % Alive NCI-H929 [2, 14]	activity on NCI-H929 (in words) ([2]; 24 h)	MM Cells % Alive OPM-2 [5, 12]	MM Cells % Alive OPM-2 [5, 13]	MM Cells % Alive OPM-2 [5, 14]	activity on OPM-2 (in words) ([5]; 24 h)	other results
CC(=O)O[C@@H]1C[C@@]23C[C@@]24CC[C@H](O[C@@H]2OC[C@@H](O)[C@H](O)[C@H]2O)C(C)(C)[C@@H]4CC[C@H]3[C@]2(C)C[C@@H]3O[C@]4(C[C@@H](C)[C@@H]3[C@@]12C)O[C@H](O)[C@@]1(C)O[C@@H]41 [Compound 1, actein]	–	–	–	–	–	–	–	–	–	–	–	–	MM Cells % Alive U266 [1, 8]: 90.2 ± 4.1%; MM Cells % Alive U266 [1, 9]: 81.0 ± 5.9%; MM Cells % Alive U266 [1, 10]: 75.1 ± 6.4%; MM Cells % Alive U266 [1, 11]: 35.5 ± 6.7%; MM Cells % Alive NCI-H929 [2, 8]: 80.5 ± 5.9%; MM Cells % Alive NCI-H929 [2, 9]: 70.2 ± 4.3%; MM Cells % Alive NCI-H929 [2, 10]: 48.2 ± 10.9%; MM Cells % Alive NCI-H929 [2, 11]: 13.2 ± 2.4%; PBMC % Alive [3, 8]: 96.4 ± 0.1%; PBMC % Alive [3, 9]: 94.6 ± 0.2%; PBMC % Alive [3, 10]: 85.6 ± 1.2%; PBMC % Alive [3, 11]: 74.9 ± 1.2%; IC50 growth inhibition of MCF7 breast cancer cells [4]: 14 µg/mL; MM Cells % Alive OPM-2 [5, 8]: 93.2 ± 3.7%; MM Cells % Alive OPM-2 [5, 9]: 93.1 ± 2.4%; MM Cells % Alive OPM-2 [5, 10]: 81.1 ± 4.7%; MM Cells % Alive OPM-2 [5, 11]: 67.3 ± 6.7%
CC1CC2OC3(OC2C(C)(C)O)C1C1(C)CCC24CC25CCC(OC2OCC(O)C(O)C2O)C(C)(C)C5CCC4C1(C)C3O [Compound 5, cimigenol-3-O-α-L-arabinopyranoside]	95.0 ± 3.1%	95.8 ± 2.8%	93.5 ± 3.5%	no activity	98.8 ± 0.9%	97.0 ± 1.2%	96.3 ± 1.3%	no activity	99.8 ± 2.0%	103.3 ± 1.4%	103.5 ± 1.3%	no activity	–
CC(C)C[C@H](NC(=O)[C@H](Cc1ccccc1)NC(=O)c1cnccn1)B(O)O [BTZ, bortezomib, reference compound]	–	–	–	–	–	–	–	–	–	–	–	–	MM Cells % Alive U266 [1, 15]: 80.7 ± 14.1%; MM Cells % Alive U266 [1, 16]: 25.0 ± 8.3%; MM Cells % Alive NCI-H929 [2, 15]: 3.0 ± 1.0%; MM Cells % Alive NCI-H929 [2, 16]: 6.3 ± 5.4%; MM Cells % Alive OPM-2 [5, 15]: 85.3 ± 7.6%; MM Cells % Alive OPM-2 [5, 16]: 66.0 ± 9.4%
COC(C)(C)C1OC23OC1CC(C)C2C1(C)CCC24CC25CCC(OC2OCC(O)C(O)C2O)C(C)(C)C5CCC4C1(C)C3O [Compound 8, 25-O-methyl-cimigenol-3-O-β-D-xylopyranoside]	102.0 ± 3.0%	97.5 ± 3.8%	81.0 ± 11.9%	–	84.8 ± 5.0%	31.3 ± 6.6%	5.0 ± 1.7%	–	97.8 ± 2.1%	84.3 ± 4.5%	27.0 ± 9.4%	–	IC50 U266 ([1]; incubation for 24 h): 31.1 µg/mL (≈ 49 µM); IC50 NCI-H929 ([2]; incubation for 24 h): 14.2 µg/mL (≈ 22.4 µM); PBMC % Alive [3, 12]: 104.3 ± 0.3%; PBMC % Alive [3, 13]: 96.3 ± 1.7%; PBMC % Alive [3, 14]: 64.3 ± 8.0%; IC50 PBMC ([3]; incubation for 24 h): 26.0 µg/mL (≈ 41 µM); IC50 OPM-2 ([5]; incubation for 24 h): 20.7 µg/mL (≈ 32.6 µM)
CC1CC2OC3(OC2C(C)(C)O)C1C1(C)CCC24CC25CCC(OC2OCC(O)C(O)C2O)C(C)(C)C5CCC4C1(C)C3O [Compound 6, cimigenol-3-O-β-D-xylopyranoside]	94.8 ± 3.0%	94.5 ± 3.5%	93.5 ± 3.2%	no activity	98.5 ± 0.8%	91.8 ± 3.4%	88.5 ± 0.3%	no activity	101.7 ± 0.9%	99.5 ± 1.8%	100.5 ± 2.4%	no activity	activity against MCF7 (in words) [6]: no activity; activity against R-MCF7 (in words) [7]: no activity
